Measured values taken from ChEMBL document CHEMBL6134905, “Double Swords in One: Novel Selective PI3K/110β PROTAC Degraders for the Treatment of Multidrug-Resistant Cancer by Activating ERS and Inhibiting P-gp” (J Med Chem, 2025).
Calls of active or inactive are those of the source. The rule behind the calls is not given here.

Legend:
[1] = target: T1, von Hippel-Lindau disease tumor suppressor/Phosphatidylinositol 4,5-bisphosphate 3-kinase catalytic subunit alpha isoform (Homo sapiens, UniProt P42336+P40337); assay: PROTAC activity at PI3K-p110alpha/VHL in human A549/DDP cells assessed as reduction in PI3K-p110alpha level incubated for 24 hrs by Western blot analysis; type: cell-based; conditions: dose 0.04-50 µM
Target sequence in this assay (P40337 whole entry, looked up, canonical isoform): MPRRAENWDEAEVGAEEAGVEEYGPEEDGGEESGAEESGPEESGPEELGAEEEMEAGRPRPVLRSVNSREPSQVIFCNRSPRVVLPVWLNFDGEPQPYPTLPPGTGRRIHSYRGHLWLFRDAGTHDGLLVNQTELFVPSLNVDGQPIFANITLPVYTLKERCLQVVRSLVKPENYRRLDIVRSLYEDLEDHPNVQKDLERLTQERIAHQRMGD
Target sequence in this assay (P42336 whole entry, looked up, canonical isoform): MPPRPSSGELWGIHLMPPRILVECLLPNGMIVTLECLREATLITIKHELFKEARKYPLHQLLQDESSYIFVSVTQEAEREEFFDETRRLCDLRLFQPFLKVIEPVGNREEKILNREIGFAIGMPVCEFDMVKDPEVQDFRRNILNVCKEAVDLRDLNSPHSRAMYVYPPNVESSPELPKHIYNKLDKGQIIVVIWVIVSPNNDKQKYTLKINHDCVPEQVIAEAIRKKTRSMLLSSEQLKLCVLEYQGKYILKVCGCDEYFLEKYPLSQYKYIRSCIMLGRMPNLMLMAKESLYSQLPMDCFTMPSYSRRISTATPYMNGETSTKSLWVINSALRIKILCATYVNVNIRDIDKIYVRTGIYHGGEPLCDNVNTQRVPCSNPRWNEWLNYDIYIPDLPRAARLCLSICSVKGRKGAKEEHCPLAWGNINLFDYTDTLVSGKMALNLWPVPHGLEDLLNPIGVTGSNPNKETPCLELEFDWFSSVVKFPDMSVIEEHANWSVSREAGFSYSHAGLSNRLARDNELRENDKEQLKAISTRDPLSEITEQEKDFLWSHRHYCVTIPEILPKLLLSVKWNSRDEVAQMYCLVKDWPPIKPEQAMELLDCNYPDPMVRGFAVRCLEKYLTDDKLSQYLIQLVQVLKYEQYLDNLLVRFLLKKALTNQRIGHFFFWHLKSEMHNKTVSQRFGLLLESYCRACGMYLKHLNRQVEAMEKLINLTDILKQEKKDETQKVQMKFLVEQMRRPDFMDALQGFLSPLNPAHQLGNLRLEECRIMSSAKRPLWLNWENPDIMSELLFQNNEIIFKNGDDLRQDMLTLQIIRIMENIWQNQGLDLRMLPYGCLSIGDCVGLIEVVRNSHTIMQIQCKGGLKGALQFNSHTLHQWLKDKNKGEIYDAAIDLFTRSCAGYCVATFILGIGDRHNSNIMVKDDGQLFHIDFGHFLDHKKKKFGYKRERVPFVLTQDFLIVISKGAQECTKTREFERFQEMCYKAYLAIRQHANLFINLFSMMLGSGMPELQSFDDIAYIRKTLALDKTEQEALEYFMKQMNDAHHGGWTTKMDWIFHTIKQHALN

[2] = target: T1, von Hippel-Lindau disease tumor suppressor/Phosphatidylinositol 4,5-bisphosphate 3-kinase catalytic subunit alpha isoform; assay: PROTAC activity at PI3K-p110alpha/VHL in human MCF7/ADM cells assessed as reduction in PI3K-p110alpha level incubated for 24 hrs by Western blot analysis; type: cell-based; conditions: dose 0.04-50 µM
Target sequence in this assay (P40337 whole entry, looked up, canonical isoform): as the sequence (P40337 whole entry, looked up, canonical isoform) above
Target sequence in this assay (P42336 whole entry, looked up, canonical isoform): as the sequence (P42336 whole entry, looked up, canonical isoform) above

[3] = target: T2, von Hippel-Lindau disease tumor suppressor/Phosphatidylinositol 4,5-bisphosphate 3-kinase catalytic subunit beta isoform (Homo sapiens, UniProt P42338+P40337); assay: PROTAC activity at PI3K-p110beta/VHL in human MCF7/ADM cells assessed as reduction in PI3K-p110beta level incubated for 24 hrs by Western blot analysis; type: cell-based; conditions: dose 0.04-50 µM
[4] = Induction of apoptosis in human MCF7/ADM cells at 12.5 uM incubated for 24 hrs by Annexin V-FITC/PI staining based flow cytometry analysis (reference value: 5.20%); type: functional
[5] = Induction of apoptosis in human MCF7/ADM cells at 25 uM incubated for 24 hrs in presence of TUDCA by Annexin V-FITC/PI staining based flow cytometry analysis (reference value: 5.20%); type: functional
MCF7/ADM = assay: Antitumor activity against human MCF7/ADM cells xenografted in BALB/c mouse assessed as reduction in tumor volume at 50 mg/kg, ip measured every 2 days in presence of Adriamycin; type: functional, organism-based; conditions: time 2.0 day
[6] = target: T2, von Hippel-Lindau disease tumor suppressor/Phosphatidylinositol 4,5-bisphosphate 3-kinase catalytic subunit beta isoform; assay: PROTAC activity at PI3K-p110beta/VHL in human A549/DDP cells assessed as reduction in PI3K-p110beta level at 25 uM incubated for 24 hrs by Western blot analysis relative to control; type: cell-based; parameters: scale not given: the % may be the effect or the level left
[7] = target: T1, von Hippel-Lindau disease tumor suppressor/Phosphatidylinositol 4,5-bisphosphate 3-kinase catalytic subunit alpha isoform; assay: PROTAC activity at PI3K-p110alpha/VHL in human MCF7/ADM cells assessed as induction of PI3K-p110alpha degradation incubated for 24 hrs by Western blot analysis; type: cell-based
Target sequence in this assay (P42336 whole entry, canonical isoform): as the sequence (P42336 whole entry, looked up, canonical isoform) above
Target sequence in this assay (P40337 whole entry, canonical isoform): as the sequence (P40337 whole entry, looked up, canonical isoform) above

[8] = target: T1, von Hippel-Lindau disease tumor suppressor/Phosphatidylinositol 4,5-bisphosphate 3-kinase catalytic subunit alpha isoform; assay: PROTAC activity at PI3K-p110alpha/VHL in human A549/DDP cells assessed as reduction in PI3K-p110alpha mRNA level at 25 uM measured for 24 hrs by qRT-PCR analysis; type: cell-based
Target sequence in this assay (P40337 whole entry, looked up, canonical isoform): as above
Target sequence in this assay (P42336 whole entry, looked up, canonical isoform): as the sequence (P42336 whole entry, looked up, canonical isoform) above

A549/CDDP [9] = assay: Induction of apoptosis in human A549/DDP cells at 25 uM incubated for 24 hrs by Annexin V-FITC/PI staining based flow cytometry analysis (reference value: 4.27%); type: functional
A549/CDDP [10] = assay: Cytotoxicity against human A549/DDP cells at 100 uM incubated for 24 hrs; type: functional, cell-based

T2 sequence (P40337 whole entry, looked up, canonical isoform): as the sequence (P40337 whole entry, looked up, canonical isoform) above
T2 sequence (P42338 whole entry, looked up, canonical isoform): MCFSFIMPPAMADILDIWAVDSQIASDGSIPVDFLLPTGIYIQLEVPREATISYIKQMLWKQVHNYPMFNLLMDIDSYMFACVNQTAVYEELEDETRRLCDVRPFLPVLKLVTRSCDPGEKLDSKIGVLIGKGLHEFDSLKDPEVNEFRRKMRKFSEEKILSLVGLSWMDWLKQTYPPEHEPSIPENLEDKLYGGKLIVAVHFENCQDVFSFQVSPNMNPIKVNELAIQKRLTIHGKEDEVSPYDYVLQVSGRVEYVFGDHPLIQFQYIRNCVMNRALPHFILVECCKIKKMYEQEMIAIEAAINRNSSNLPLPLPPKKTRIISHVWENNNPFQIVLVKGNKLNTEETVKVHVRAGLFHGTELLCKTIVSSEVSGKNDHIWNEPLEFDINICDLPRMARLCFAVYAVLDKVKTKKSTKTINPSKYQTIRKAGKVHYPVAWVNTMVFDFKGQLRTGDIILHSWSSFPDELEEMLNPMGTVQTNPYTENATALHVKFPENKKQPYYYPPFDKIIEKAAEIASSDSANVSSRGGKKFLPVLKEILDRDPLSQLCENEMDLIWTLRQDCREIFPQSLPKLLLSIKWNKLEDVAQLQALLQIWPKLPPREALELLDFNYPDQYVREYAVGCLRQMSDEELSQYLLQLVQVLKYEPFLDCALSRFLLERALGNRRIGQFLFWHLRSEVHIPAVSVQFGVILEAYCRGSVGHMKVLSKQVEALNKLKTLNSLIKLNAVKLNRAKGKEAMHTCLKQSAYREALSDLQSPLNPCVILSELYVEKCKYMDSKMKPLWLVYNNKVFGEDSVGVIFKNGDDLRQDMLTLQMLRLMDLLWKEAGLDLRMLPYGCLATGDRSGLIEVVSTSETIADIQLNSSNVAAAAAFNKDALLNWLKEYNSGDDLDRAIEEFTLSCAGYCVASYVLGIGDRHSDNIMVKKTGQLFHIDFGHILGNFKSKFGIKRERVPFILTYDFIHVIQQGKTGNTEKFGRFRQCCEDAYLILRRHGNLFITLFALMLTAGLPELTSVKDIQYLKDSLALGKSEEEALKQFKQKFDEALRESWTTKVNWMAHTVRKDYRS

| Activity [1] | Activity [2] | Activity [3] | Activity [6] [%] | DC50 [7] [µM] | Activity [8] | Compound | Activity [4] [%] | Activity [5] [%] | Activity (MCF7/ADM) | Activity (A549/CDDP [9]) [%] | Activity (A549/CDDP [10]) |
| --- | --- | --- | --- | --- | --- | --- | --- | --- | --- | --- | --- |
| Dose-dependent-effect | Dose-dependent-effect | Dose-dependent-effect | – | – | – | Cc1cc(C(C)Nc2ccccc2C(=O)NCCOCCOCCC(=O)N[C@H](C(=O)N2C[C@H](O)C[C@H]2C(=O)NCc2ccc(-c3scnc3C)cc2)C(C)(C)C)c2nc(N3CCOCC3)cc(=O)n2c1 (stereo partly specified) | 15.59 | 21.59 | Active | – | – |
| – | – | – | 88 | > 50 | inactive | Cc1cc(C(C)Nc2ccccc2C(=O)NCCCCCCC(=O)N[C@H](C(=O)N2C[C@H](O)C[C@H]2C(=O)NCc2ccc(-c3scnc3C)cc2)C(C)(C)C)c2nc(N3CCOCC3)cc(=O)n2c1 (stereo partly specified) | – | – | – | 23.83 | Active |
